Source: patent US8247211B2, “Glycopeptide antibiotics” (American Cyanamid Company, priority 2001, dated 2012)

Columns and labels:
Assay in all cases: In vitro antibacterial evaluation: minimum inhibitory concentration (MIC), broth dilution method
Format in all cases: cell-based
Escherichia coli = system: Escherichia coli
Method in brief: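 Test strains, among them recent clinical isolates carrying methicillin, penicillin and/or vancomycin resistance, were inoculated at 5×10^5 CFU/mL. A broth dilution series spanning 64-0.06 μg/mL in Muller-Hinton II […] (NCCLS M7-A2) defined the MIC as the lowest growth-inhibiting concentration.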

Streptococcus sp. = system: Streptococcus sp.
Method in brief: (§1)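 Inoculum: 5×10^5 CFU/mL. Range: 64-0.06 μg/mL. Medium: Muller-Hinton II […]; NCCLS M7-A2 broth dilution. Endpoint: lowest concentration inhibiting growth. Strains include methicillin-, penicillin- and/or vancomycin-resistant clinical isolates.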

Staphylococcus sp. = details: 18 hours at 35° C.
Method in brief: as §1

Enterococcus sp. = system: Enterococcus sp.
Method in brief: as §1

[1] = broth dilution, inoculum 5×10^5 CFU/mL, 18 hours at 35° C.

CC(c1ccccc1)C1NC(=O)CNC(=O)C(CO)NC(=O)C(C(O)C2CNC(=N)N2C2OC(CO)C(O)C(O)C2O)NC(=O)C(C(O)C2CNC(=N)N2)NC(=O)C(Cc2ccc(OC3OC(CO)C(OC4OC(COCC=Cc5ccc(N(C)C)cc5)C(O)C(O)C4O)C(O)C3O)cc2)NC1=O (stereo not drawn) [Example 243]
16 µg/mL: MIC Streptococcus pneumoniae (GC 4565) (Streptococcus sp.; Streptococcus pneumoniae (GC 4565), 18 hours at 35° C.) | MIC Streptococcus pneumoniae (GC 4565) (Streptococcus sp.; [1])
32 µg/mL: MIC Streptococcus agalactiae (GC 4564) (Streptococcus sp.; Streptococcus agalactiae (GC 4564), 18 hours at 35° C.) | MIC Streptococcus pneumoniae (ATCC 6301) (Streptococcus sp.; Streptococcus pneumoniae (ATCC 6301), 18 hours at 35° C.) | MIC Streptococcus pyogenes (GC 4563) (Streptococcus sp.; Streptococcus pyogenes (GC 4563), 18 hours at 35° C.) | MIC Streptococcus agalactiae (GC 4564) (Streptococcus sp.; [1]) | MIC Streptococcus pneumoniae (ATCC 6301) (Streptococcus sp.; [1]) | MIC Streptococcus pyogenes (GC 4563) (Streptococcus sp.; [1]) | MIC Coagulase Negative Staphylococcus (GC 4548) (Staphylococcus sp.; Coagulase Negative Staphylococcus (GC 4548)) | MIC Coagulase Negative Staphylococcus (GC 4549) (Staphylococcus sp.; Coagulase Negative Staphylococcus (GC 4549)) | MIC Coagulase Negative Staphylococcus (GC 6257) (Staphylococcus sp.; Coagulase Negative Staphylococcus (GC 6257)) | MIC Enterococcus avium (GC 4558) (Enterococcus sp.; Enterococcus avium (GC 4558), 18 hours at 35° C.) | MIC Enterococcus faecium (GC 4557) (Enterococcus sp.; Enterococcus faecium (GC 4557), 18 hours at 35° C.)
8 µg/mL: MIC Streptococcus pneumoniae (GC 1894) (Streptococcus sp.; Streptococcus pneumoniae (GC 1894), 18 hours at 35° C.) | MIC Streptococcus pneumoniae (GC 1894) (Streptococcus sp.; [1])
>64 µg/mL: MIC Escherichia coli (ATCC 25922) (Escherichia coli; Escherichia coli (ATCC 25922), 18 hours at 35° C.) | MIC Escherichia coli (GC 4559) (Escherichia coli; Escherichia coli (GC 4559), 18 hours at 35° C.) | MIC Enterococcus faecalis (ATCC 29212) (Enterococcus sp.; Enterococcus faecalis (ATCC 29212), 18 hours at 35° C.) | MIC Enterococcus faecalis (GC 2691) (Enterococcus sp.; Enterococcus faecalis (GC 2691), 18 hours at 35° C.) | MIC Enterococcus faecalis (GC 3059) (Enterococcus sp.; Enterococcus faecalis (GC 3059), 18 hours at 35° C.) | MIC Enterococcus faecalis (GC 4552) (Enterococcus sp.; Enterococcus faecalis (GC 4552), 18 hours at 35° C.) | MIC Enterococcus faecalis (GC 4554) (Enterococcus sp.; Enterococcus faecalis (GC 4554), 18 hours at 35° C.) | MIC Enterococcus faecium (GC 4556) (Enterococcus sp.; Enterococcus faecium (GC 4556), 18 hours at 35° C.) | MIC Enterococcus faecalis (GC 2691) (Enterococcus sp.; [1]) | MIC Enterococcus faecalis (GC 3059) (Enterococcus sp.; [1])
64 µg/mL: MIC Escherichia coli (GC 4560) (Escherichia coli; Escherichia coli (GC 4560), 18 hours at 35° C.) | MIC Coagulase Negative Staphylococcus (GC 4547) (Staphylococcus sp.; Coagulase Negative Staphylococcus (GC 4547)) | MIC Coagulase Negative Staphylococcus (GC 4551) (Staphylococcus sp.; Coagulase Negative Staphylococcus (GC 4551)) | MIC Staphylococcus aureus (ATCC 29213) (Staphylococcus sp.; Staphylococcus aureus (ATCC 29213)) | MIC Staphylococcus aureus (GC 1131) (Staphylococcus sp.; Staphylococcus aureus (GC 1131)) | MIC Staphylococcus aureus (GC 3051) (Staphylococcus sp.; Staphylococcus aureus (GC 3051)) | MIC Staphylococcus aureus (GC 3053) (Staphylococcus sp.; Staphylococcus aureus (GC 3053)) | MIC Staphylococcus aureus (GC 4541) (Staphylococcus sp.; Staphylococcus aureus (GC 4541)) | MIC Staphylococcus aureus (GC 4542) (Staphylococcus sp.; Staphylococcus aureus (GC 4542)) | MIC Staphylococcus aureus (GC 4544) (Staphylococcus sp.; Staphylococcus aureus (GC 4544)) | MIC Staphylococcus aureus (GC 4545) (Staphylococcus sp.; Staphylococcus aureus (GC 4545)) | MIC Staphylococcus aureus-SMITH (GC 4543) (Staphylococcus sp.; Staphylococcus aureus-SMITH (GC 4543)) | MIC Staphylococcus haemolyticus (GC 4546) (Staphylococcus sp.; Staphylococcus haemolyticus (GC 4546)) | MIC Enterococcus faecalis (GC 2242) (Enterococcus sp.; Enterococcus faecalis (GC 2242), 18 hours at 35° C.) | MIC Enterococcus faecalis (GC 4553) (Enterococcus sp.; Enterococcus faecalis (GC 4553), 18 hours at 35° C.) | MIC Enterococcus faecalis (GC 6189) (Enterococcus sp.; Enterococcus faecalis (GC 6189), 18 hours at 35° C.) | MIC Enterococcus faecium (GC 2243) (Enterococcus sp.; Enterococcus faecium (GC 2243), 18 hours at 35° C.) | MIC Enterococcus faecalis (GC 2242) (Enterococcus sp.; [1])

CCCc1ccc(C2OCC3OC(OC4C(CO)OC(Oc5ccc(CC6NC(=O)C(C(C)c7ccccc7)NC(=O)CNC(=O)C(CO)NC(=O)C(C(O)C7CNC(=N)N7C7OC(CO)C(O)C(O)C7O)NC(=O)C(C(O)C7CNC(=N)N7)NC6=O)cc5)C(O)C4O)C(O)C(O)C3O2)cc1 (stereo not drawn) [Example 140, Cyclo[glycyl-β-methylphenylalanyl-O-[4-O-[4,6-O-(4-propylbenzylidene)hexopyranosyl]-hexopyranosyl]tyrosyl-3-(2-iminoimidazolidin-4-yl)seryl-3-(3-hexopyranosyl-2-iminoimidazolidin-4-yl)serylseryl]]
64 µg/mL: MIC Escherichia coli (ATCC 25922) (Escherichia coli; strain ATCC 25922) | MIC Escherichia coli (GC 4559) (Escherichia coli; strain GC 4559)
1 µg/mL: MIC Escherichi coli (GC 4560) (Escherichia coli; strain GC 4560) | MIC Staphylococcus aureus (ATCC 29213) (Staphylococcus sp.; broth dilution, 5×10^5 CFU/mL) | MIC Staphylococcus aureus (GC 1131) (Staphylococcus sp.; broth dilution, 5×10^5 CFU/mL) | MIC Staphylococcus aureus (GC 3051) (Staphylococcus sp.; broth dilution, 5×10^5 CFU/mL) | MIC Staphylococcus aureus (GC 4541) (Staphylococcus sp.; broth dilution, 5×10^5 CFU/mL) | MIC Staphylococcus aureus (GC 4542) (Staphylococcus sp.; broth dilution, 5×10^5 CFU/mL) | MIC Staphylococcus aureus (GC 4544) (Staphylococcus sp.; broth dilution, 5×10^5 CFU/mL) | MIC Staphylococcus aureus-SMITH (GC 4543) (Staphylococcus sp.; broth dilution, 5×10^5 CFU/mL) | MIC Staphylococcus haemolyticus (GC 4546) (Staphylococcus sp.; broth dilution, 5×10^5 CFU/mL) | MIC Staphylococcus aureus (ATCC 29213) (Staphylococcus sp.; strain ATCC 29213, broth dilution) | MIC Staphylococcus aureus (GC 1131) (Staphylococcus sp.; strain GC 1131, broth dilution) | MIC Staphylococcus aureus (GC 3051) (Staphylococcus sp.; strain GC 3051, broth dilution) | MIC Staphylococcus aureus (GC 4541) (Staphylococcus sp.; strain GC 4541, broth dilution) | MIC Staphylococcus aureus (GC 4542) (Staphylococcus sp.; strain GC 4542, broth dilution) | MIC Staphylococcus aureus-SMITH (GC 4543) (Staphylococcus sp.; strain GC 4543, broth dilution) | MIC Staphylococcus aureus (GC 4544) (Staphylococcus sp.; strain GC 4544, broth dilution) | MIC Staphylococcus haemolyticus (GC 4546) (Staphylococcus sp.; strain GC 4546, broth dilution) | MIC Enterococcus faecium (GC 2243) (Enterococcus sp.; strain GC 2243) | MIC Enterococcus faecalis (GC 2691) (Enterococcus sp.; strain GC 2691) | MIC Enterococcus faecalis (GC 3059) (Enterococcus sp.; strain GC 3059) | MIC Enterococcus faecalis (GC 4552) (Enterococcus sp.; strain GC 4552) | MIC Enterococcus faecalis (GC 4553) (Enterococcus sp.; strain GC 4553) | MIC Enterococcus faecalis (GC 4554) (Enterococcus sp.; strain GC 4554) | MIC Enterococcus faecium (GC 4556) (Enterococcus sp.; strain GC 4556) | MIC Enterococcus faecium (GC 4557) (Enterococcus sp.; strain GC 4557) | MIC Enterococcus avium (GC 4558) (Enterococcus sp.; strain GC 4558) | MIC Enterococcus faecalis (GC 6189) (Enterococcus sp.; strain GC 6189)
<1 µg/mL: MIC Enterococcus faecalis (GC 2242) (Enterococcus sp.; strain GC 2242)
<0.5 µg/mL: MIC Streptococcus pneumoniae (ATCC 6301) (Streptococcus sp.; strain ATCC 6301) | MIC Streptococcus pneumoniae (GC 1894) (Streptococcus sp.; strain GC 1894) | MIC Streptococcus pyogenes (GC 4563) (Streptococcus sp.; strain GC 4563) | MIC Streptococcus agalactiae (GC 4564) (Streptococcus sp.; strain GC 4564) | MIC Streptococcus pneumoniae (GC 4565) (Streptococcus sp.; strain GC 4565) | MIC Coagulase Negative Staphylococcus (GC 4547) (Staphylococcus sp.; broth dilution, 5×10^5 CFU/mL) | MIC Coagulase Negative Staphylococcus (GC 4548) (Staphylococcus sp.; broth dilution, 5×10^5 CFU/mL) | MIC Coagulase Negative Staphylococcus (GC 4549) (Staphylococcus sp.; broth dilution, 5×10^5 CFU/mL) | MIC Coagulase Negative Staphylococcus (GC 4551) (Staphylococcus sp.; broth dilution, 5×10^5 CFU/mL) | MIC Coagulase Negative Staphylococcus (GC 6257) (Staphylococcus sp.; broth dilution, 5×10^5 CFU/mL) | MIC Staphylococcus aureus (GC 3053) (Staphylococcus sp.; broth dilution, 5×10^5 CFU/mL) | MIC Staphylococcus aureus (GC 4545) (Staphylococcus sp.; broth dilution, 5×10^5 CFU/mL) | MIC Staphylococcus aureus (GC 3053) (Staphylococcus sp.; strain GC 3053, broth dilution) | MIC Staphylococcus aureus (GC 4545) (Staphylococcus sp.; strain GC 4545, broth dilution) | MIC Coagulase Negative Staphylococcus (GC 4547) (Staphylococcus sp.; strain GC 4547, broth dilution) | MIC Coagulase Negative Staphylococcus (GC 4548) (Staphylococcus sp.; strain GC 4548, broth dilution) | MIC Coagulase Negative Staphylococcus (GC 4549) (Staphylococcus sp.; strain GC 4549, broth dilution) | MIC Coagulase Negative Staphylococcus (GC 4551) (Staphylococcus sp.; strain GC 4551, broth dilution) | MIC Coagulase Negative Staphylococcus (GC 6257) (Staphylococcus sp.; strain GC 6257, broth dilution) | MIC Enterococcus faecalis (ATCC 29212) (Enterococcus sp.; strain ATCC 29212)
